Literature values in US20240148688A1, “METHODS FOR TREATING AND AMELIORATING CANCER” (The Regents of the University of California, priority 2021, published 2024).

Tests used:
[1] = patients with MDS, AML and CMML; cited from earlier work
[2] = cited from earlier work

| Compound | CR or PR (clinical response) [1] | reversible optic neuritis ([2]; patients with solid tumors) | efficacy in clinical trial ([2]; patients) |
| --- | --- | --- | --- |
| H3B-8800 | no CR or PR | – | – |
| CC[C@H](O)[C@@H](C)[C@H]1O[C@@H]1C[C@@](C)(O)/C=C/C=C(\C)[C@H]1OC(=O)C[C@H](O)CC[C@@](C)(O)[C@@H](OC(=O)N2CCN(C3CCCCCC3)CC2)/C=C/[C@@H]1C [E7107] | – | two of 26 patients | limited efficacy |
